Assay results: patent US20220184222A1, “BICYCLE TOXIN CONJUGATES AND USES THEREOF” (BicycleTx Limited, priority 2019, published 2022)
Starred links: 1 amine or outer side, 2 acyl side, 3 side chain; linkers in the order of their positions; H or OH if unused. Non-standard residues stand in square brackets, D forms with d. Residues, ends and D or L forms follow the SMILES beside them. *: point of attachment. Dolaproine = CO[C@@H]([C@@H]1CCCN1)[C@@H](C)C(=O)O; Dil = CC[C@H](C)[C@H](NC)[C@@H](CC(=O)O)OC; PABC = O=C(OCc1ccc(N[*:1])cc1)[*:2]; X1 = O=C(CCCC(=O)*)ON1C(=O)CCC1=O; X2 = C[C@@H](N*)[C@@H](O)c1ccccc1; Cit = NC(=O)NCCC[C@H](N)C(=O)O; NMeV = CN[C@H](C(=O)O)C(C)C

System: PC-3M-luc-C6 human prostate carcinoma
Assay: Intracardially implanted PC-3M-Luc-C6 metastatic model, BLI and survival (Example 6)
Type: in vivo, Mouse
Conditions: for Day 26 T/C: BLI total bone signal; for tumor growth delay: evaluation size 9.0E+07 p/s
Procedure: The purpose of this study was to evaluate the efficacy and overall impact of Bicycle toxin conjugate BT5528 against established intracardially implanted PC-3M-luc-C6 human prostate carcinoma in male nude mice, with treatment regimens starting at different disease stages (Day 14 and Day 21). Response was monitored using bioluminescence imaging (BLI) on Days 14, 21, 28, 35, and 42 coupled with traditional survival endpoints.
BT5528: • Formulation pH: 5.4 • High Dose Formulation: 0.15 mg/mL • Vehicle: 50 mM Acetate, 10% Sucrose • Storage: 4° C. • Dose volume: 0.01 mL/g
All procedures carried out in this experiment were conducted in compliance with the applicable laws, regulations and guidelines of the National Institutes of Health (NIH). • Species: Mouse • Strain: Envigo nude mice (Hsd:Athymic Nude-Foxn1^nu) • Age at implant: 5-6 weeks • Sex: male • Min weight (D14): 24.9 g • Mean weight (D14): 28.4 g (range of group means, 27.7-28.8 g)
Animals were anesthetized with an IP injection of a ketamine (100 mg/kg)/xylazine (6 mg/kg) cocktail. When the animals were non-responsive (determined by a toe pinch test), 100 μl of cell suspension (3.0 E+06 cells) were drawn into a 1 ml syringe and a 27×½″ gauge needle was then attached. A small air bubble is created in the plunger side of the syringe before injection. The needle was then inserted slowly through the center of the second intercostal space, approximately 3 mm to the left of the sternum and aimed centrally until a continuous pulsation of bright red oxygenated blood into the needle hub was observed. 100 μl of cell suspension was then slowly injected over 5 seconds. A fresh needle and syringe were used for each animal.
Animals were injected with firefly D-luciferin (150 mg/kg) by IP administration according to body weight (0.2 ml/20 g). The success of the intracardiac injections was verified by a one minute bioluminescence scan using large binning (high sensitivity) of the CCD chip immediately after the injection. Mice with signals from the entire body, from snout to base of the tail, were deemed to have been successfully injected, while mice with signals localized to the chest area only, or not fully extending into the snout, were triaged from the study immediately.
All mice were sorted into study groups based on body weight and BLI-derived estimation of tumor burden.
BLI was performed using an IVIS S5 Lumina system (PerkinElmer, Waltham, Mass.). Animals were imaged five at a time under 1-2% isoflurane gas anesthesia. Each mouse was injected IP with 150 mg/kg (15 mg/ml) D-luciferin and imaged in the prone then supine positions 10 minutes after the injection. Large binning of the CCD chip was used, and the exposure time was adjusted (10 seconds to 2 minutes) to obtain at least several hundred counts per image and to avoid saturation of the CCD chip. BLI images were collected on Days 0, 7, 14, 21, 28, 35, 42, 49, 56 and 63 post-implant.
Images were analyzed using Living Image 4.7.1 (PerkinElmer, MA) software. Each unique tissue signal was circled manually and labeled based on anatomical site as mandible or hind limb for both prone and supine images. For limbs, the signal was also designated as being from the right or left side of the mouse.
Signal flux (photons/sec) were calculated for each unique metastatic signal and exported for all ROIs to facilitate analyses between groups.
Study was terminated on Day 78. All BLI endpoint calculations were derived from total bone values. The BLI background signal for this study was measured at 1.20 E+05 p/s. An animal was credited with a partial regression if the BLI signal fell below half the staging BLI signal level. Similarly, a complete regression (CR) was credited if the BLI signal fell below the background level, and a tumor-free survivor was if the BLI signal was below background on last day of imaging (Day 63), with no evidence of disease at necropsy. […]

[1] = 1.5 mg/kg IV Q7D × 4 starting Day 14
[2] = 1.5 mg/kg IV Q7D × 4 starting Day 21

With `CC[C@H](C)[C@@H]([C@@H](CC(=O)N1CCC[C@H]1[C@H](OC)[C@@H](C)C(=O)N[C@H](C)[C@@H](O)c1ccccc1)OC)N(C)C(=O)[C@@H](NC(=O)[C@H](C(C)C)N(C)C(=O)OCc1ccc(NC(=O)[C@H](CCCNC(N)=O)NC(=O)[C@@H](NC(=O)CCCC(=O)ON2C(=O)CCC2=O)C(C)C)cc1)C(C)C` [BT5528] (X1-V[Cit][PABC][NMeV]V[Dil][Dolaproine]-X2) the “incidence of partial regressions” value [1] was 60%, the “increased lifespan (ILS)” value [1] was 177.3% and the “Day 26 T/C” value [1] was 1%. For the same compound, the tumor growth delay [1] was greater than 35.1 days, the “increased lifespan (ILS)” value [2] was 145.5% and the “less incidence of partial regressions than with Day 14 start” value [2] was 40%. The “Day 26 T/C” value [2] was 3.4%, the tumor growth delay [2] was greater than 35.1 days and the “bone tumor cell burden and survival” value (4 weekly treatment cycles) was “reduced the bone tumor cell burden significantly and extended the survival of the mice”. The “mice at the end of the study (D78) without observable (macroscopic) disease” value (mouse, in vivo) was 1 mouse.
